Data set [1] deals with T1, ATP-dependent translocase ABCB1 (Homo sapiens, UniProt P08183). Nature of the data set: TP_TRANSPORTER: transepithelial transport (basal to apical) in MDR1-expressing LLC-PK1 cells. In kind it is functional, cell-based. Particulars: pig.
For data set [2], the target named is T1, ATP-dependent translocase ABCB1. Nature of the data set: TP_TRANSPORTER: inhibition of Digoxin transepithelial transport (basal to apical)(Digoxin: 0.1uM, Vinblastine: 20 uM) in MDR1-expressing LLC-PK1 cells. In kind it is functional, cell-based. Particulars: pig, llc-pk1, 20 µM.

T1 sequence (P08183 whole entry): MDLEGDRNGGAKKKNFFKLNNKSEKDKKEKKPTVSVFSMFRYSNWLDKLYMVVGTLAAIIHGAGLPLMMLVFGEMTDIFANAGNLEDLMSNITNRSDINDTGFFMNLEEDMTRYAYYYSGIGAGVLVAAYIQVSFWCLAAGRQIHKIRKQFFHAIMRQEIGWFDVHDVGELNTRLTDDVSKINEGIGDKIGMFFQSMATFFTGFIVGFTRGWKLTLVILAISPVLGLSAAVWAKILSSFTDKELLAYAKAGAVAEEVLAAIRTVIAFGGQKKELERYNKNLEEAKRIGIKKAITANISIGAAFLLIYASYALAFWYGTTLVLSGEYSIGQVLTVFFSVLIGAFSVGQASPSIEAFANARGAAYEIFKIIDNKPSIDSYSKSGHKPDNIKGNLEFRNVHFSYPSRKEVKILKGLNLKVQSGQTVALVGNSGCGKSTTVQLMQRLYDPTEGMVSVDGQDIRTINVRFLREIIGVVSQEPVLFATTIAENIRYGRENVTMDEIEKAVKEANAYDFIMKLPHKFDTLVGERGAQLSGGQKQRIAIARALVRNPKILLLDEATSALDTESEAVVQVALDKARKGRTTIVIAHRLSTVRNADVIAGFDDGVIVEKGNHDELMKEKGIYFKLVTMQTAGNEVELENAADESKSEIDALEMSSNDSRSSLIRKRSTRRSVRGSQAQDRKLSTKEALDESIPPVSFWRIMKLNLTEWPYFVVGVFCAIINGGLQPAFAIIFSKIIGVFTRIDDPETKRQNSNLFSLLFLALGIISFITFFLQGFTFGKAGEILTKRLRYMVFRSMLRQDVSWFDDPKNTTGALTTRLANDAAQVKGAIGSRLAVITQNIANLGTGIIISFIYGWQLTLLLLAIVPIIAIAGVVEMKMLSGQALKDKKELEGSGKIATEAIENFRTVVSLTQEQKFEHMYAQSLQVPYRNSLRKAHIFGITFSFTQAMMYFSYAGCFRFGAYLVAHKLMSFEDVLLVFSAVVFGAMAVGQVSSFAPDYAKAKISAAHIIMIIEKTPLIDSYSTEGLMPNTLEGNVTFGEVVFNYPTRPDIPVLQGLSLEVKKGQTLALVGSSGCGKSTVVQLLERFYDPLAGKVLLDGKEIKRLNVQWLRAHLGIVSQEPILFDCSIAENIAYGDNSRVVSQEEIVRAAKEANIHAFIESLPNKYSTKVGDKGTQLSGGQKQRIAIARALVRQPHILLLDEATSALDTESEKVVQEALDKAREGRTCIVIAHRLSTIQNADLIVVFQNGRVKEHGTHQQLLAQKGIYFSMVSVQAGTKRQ

As for `C[C@H]1O[C@@H](O[C@H]2[C@@H](O)C[C@H](O[C@H]3[C@@H](O)C[C@H](O[C@H]4CC[C@@]5(C)[C@H](CC[C@@H]6[C@@H]5C[C@@H](O)[C@]5(C)[C@@H](C7=CC(=O)OC7)CC[C@]65O)C4)O[C@@H]3C)O[C@@H]2C)C[C@H](O)[C@@H]1O` [DIGOXIN], in data set [1], the Activity entry is “substrate [+]”.

Take `CC[C@]1(O)C[C@@H]2CN(CCc3c([nH]c4ccccc34)[C@@](C(=O)OC)(c3cc4c(cc3OC)N(C)[C@H]3[C@@](O)(C(=O)OC)[C@H](OC(C)=O)[C@]5(CC)C=CCN6CC[C@]43[C@@H]65)C2)C1` [VINBLASTINE]: the Activity entry in data set [2] was “inhibitor [+]”.
